The target of this test is Botulinum neurotoxin type A (Clostridium botulinum, UniProt P0DPI0).

This passage reports Ki results from ChEMBL document CHEMBL2321774, “The C-terminus of Botulinum A Protease Has Profound and Unanticipated Kinetic Consequences Upon the Catalytic Cleft” (ACS Med Chem Lett, 2013).

Botulinum neurotoxin type A, sequence (P0DPI0 2-448 limits assumed): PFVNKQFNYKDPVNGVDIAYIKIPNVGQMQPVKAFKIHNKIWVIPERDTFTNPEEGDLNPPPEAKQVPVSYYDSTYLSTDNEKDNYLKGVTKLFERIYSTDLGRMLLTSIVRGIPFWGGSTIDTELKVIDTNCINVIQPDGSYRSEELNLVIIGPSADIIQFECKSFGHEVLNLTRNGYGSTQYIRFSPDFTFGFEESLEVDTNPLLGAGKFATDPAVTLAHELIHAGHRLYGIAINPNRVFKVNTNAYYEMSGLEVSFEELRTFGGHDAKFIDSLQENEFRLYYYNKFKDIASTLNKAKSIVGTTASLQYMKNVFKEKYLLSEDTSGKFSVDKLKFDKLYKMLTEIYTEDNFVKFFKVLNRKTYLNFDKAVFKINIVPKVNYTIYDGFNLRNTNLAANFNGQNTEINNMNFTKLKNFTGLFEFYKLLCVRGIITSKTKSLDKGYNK

In turn, `COC(=O)c1ccc(O)c2nc3c(C=O)c(O)cc(O)c3nc12` [LOMOFUNGIN] returned a Ki of 25 µM.
